The source of these data is patent US20240024335A1, “TREATMENT AND PREVENTION OF ANAEMIA OF INFLAMMATION” (Sanquin IP B.V., priority 2020, published 2024).

Entries after “also recorded” stand apart in the source; their conditions may differ.

One data set deals with donor RBCs. As to the kind of experiment: Flow assay: adhesion of donor RBC to laminin-α5 in response to IL-8 and sera from sepsis patients.
In another data set the test system is sickle cell patients. Particulars: Ataga et al.; cited from earlier work.
The conditions of data set [1]: in vivo; cited from earlier work.

On to `NC(=O)C(c1ccccc1)(c1ccc(F)cc1)c1ccc(F)cc1` [Senicapoc, 4-fluoro-α-(4-fluorophenyl)-α-phenyl-benzeneacetamide], for which the “AI-mediated degradation of RBC in vitro” value with donor RBCs (in vitro, see Example 1) is “counteracts AI-mediated degradation of RBC”. Moreover, the “Reduction of vaso-occlusive events” value with sickle cell patients is listed as “did not result in reduction of vaso-occlusive events”. Further, the Tolerability entry in data set [1] is on record as “well-tolerated”.
With `Clc1ccccc1C(c1ccccc1)(c1ccccc1)n1cccn1` [TRAM34, 1-[(2-chlorophenyl)diphenylmethyl]-1H-pyrazole], the “Adhesion of donor RBCs to laminin-α5 in response to IL-8 incubation” value with donor RBCs (RBCs pre-incubated with inhibitor 30 min, then IL-8 30 min at 37° C., FIG. 8B, 8C) is listed as “inhibited; also recorded: counteracted”. In addition, the “Adhesion of donor RBCs to laminin-α5 in response to sera of sepsis patients” value in the data set on donor RBCs (RBCs pre-incubated with inhibitor 30 min, then sera of sepsis patients 30 min at 37° C., FIG. 8D) is recorded as “inhibited”.
